Patent US20170233413A1, “SUBSTITUTED ANNULATED PYRIMIDINES AND USE THEREOF” (Bayer Pharma Aktiengesellschaft, priority 2014, published 2017)

Tests used:
[1] = biological target: T1, recombinant guanylate cyclase reporter cell line (Rattus norvegicus, UniProt P19686+P20595); experiment: Effect on a recombinant guanylate cyclase reporter cell line; format: cell-based; conditions: MEC = minimum effective concentration; in some cases means of individual determinations
T1 construct: expressed in transfected cells
T1 sequence (P19686 1-690): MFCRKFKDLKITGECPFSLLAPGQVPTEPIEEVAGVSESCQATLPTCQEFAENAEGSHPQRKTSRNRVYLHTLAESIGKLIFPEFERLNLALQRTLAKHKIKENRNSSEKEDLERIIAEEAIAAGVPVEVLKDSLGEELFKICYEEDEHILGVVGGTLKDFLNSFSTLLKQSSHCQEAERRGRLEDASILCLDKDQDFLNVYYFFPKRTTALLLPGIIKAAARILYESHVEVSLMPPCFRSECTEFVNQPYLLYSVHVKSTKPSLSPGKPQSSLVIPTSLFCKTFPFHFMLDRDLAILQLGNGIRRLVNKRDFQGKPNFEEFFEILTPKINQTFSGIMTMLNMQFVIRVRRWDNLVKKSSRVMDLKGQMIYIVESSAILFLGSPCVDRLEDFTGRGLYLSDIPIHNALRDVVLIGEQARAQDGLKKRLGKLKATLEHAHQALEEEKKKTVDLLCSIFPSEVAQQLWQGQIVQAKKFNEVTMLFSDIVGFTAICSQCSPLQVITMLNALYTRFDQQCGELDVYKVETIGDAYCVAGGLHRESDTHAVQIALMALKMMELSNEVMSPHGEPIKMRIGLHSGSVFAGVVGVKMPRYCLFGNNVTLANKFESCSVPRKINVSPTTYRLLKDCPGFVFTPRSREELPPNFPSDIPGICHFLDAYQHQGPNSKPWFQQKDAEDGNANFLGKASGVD
T1 sequence (P20595 1-619): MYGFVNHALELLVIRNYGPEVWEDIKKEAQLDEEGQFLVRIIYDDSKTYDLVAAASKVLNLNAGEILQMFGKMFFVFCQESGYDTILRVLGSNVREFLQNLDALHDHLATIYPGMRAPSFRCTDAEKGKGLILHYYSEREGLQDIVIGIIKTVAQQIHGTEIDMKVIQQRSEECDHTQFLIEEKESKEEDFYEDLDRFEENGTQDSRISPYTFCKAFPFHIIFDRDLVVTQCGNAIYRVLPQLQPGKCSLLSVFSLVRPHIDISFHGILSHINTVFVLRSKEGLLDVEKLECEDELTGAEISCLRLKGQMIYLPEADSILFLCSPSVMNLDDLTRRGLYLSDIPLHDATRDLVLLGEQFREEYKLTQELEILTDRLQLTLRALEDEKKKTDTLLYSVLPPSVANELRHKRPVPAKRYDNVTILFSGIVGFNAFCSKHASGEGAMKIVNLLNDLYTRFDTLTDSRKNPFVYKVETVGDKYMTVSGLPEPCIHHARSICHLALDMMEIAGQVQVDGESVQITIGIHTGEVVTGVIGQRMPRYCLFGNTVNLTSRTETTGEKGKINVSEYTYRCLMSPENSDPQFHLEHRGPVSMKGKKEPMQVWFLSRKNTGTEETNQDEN
Outline: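 Cellular activity measured in a recombinant rat soluble guanylate cyclase reporter cell line. Values are minimum effective concentration (MEC), some given as means of individual determinations.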

[2] = biological target: T2, human phosphodiesterase 5 (PDE 5) (Homo sapiens, UniProt O76074); experiment: Inhibition of human phosphodiesterase 5 (PDE 5); format: biochemical; conditions: PDE 5 preparation from human platelets; in some cases means of individual determinations
T2 construct: PDE 5 preparations are obtained from human platelets by disruption; from tissue; host or cells: human platelets
Outline: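 Enzyme partially purified from human platelets by Mono Q ion exchange, diluted so that under 70% of substrate converts. [8-3H]cGMP at 0.025 μCi per well in Tris pH 7.5 with MgCl2/EDTA, 60 min at room temperature, yttrium SPA bead read-out. Final compound concentrations 4–0.0018 μM; IC50 from concentration–inhibition plot.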

SMILES | MEC [1] | IC50 [2]
CN(CC1CC1)C(=O)c1nc(-c2nn(Cc3ccccc3F)c3ncccc23)nc2c1C(C)(C)C(=O)N2 [Example 111, N-(cyclopropylmethyl)-2-[1-(2-fluorobenzyl)-1H-pyrazolo[3,4-b]pyridin-3-yl]-N,5,5-trimethyl-6-oxo-6,7-dihydro-5H-pyrrolo[2,3-d]pyrimidine-4-carboxamide] | 0.01 µM | 710 nM
CN(CCO)C(=O)c1nc(-c2nn(Cc3ncccc3F)c3ncc(F)cc23)nc2c1C(C)(C)C(=O)N2 [Example 35] | 10 µM | 1300 nM
CC1(C)C(=O)Nc2nc(-c3nn(Cc4ccccc4F)c4cc(Cl)ccc34)nc(C(=O)NCCC(F)(F)F)c21 [Example 45] | 0.3 µM | 130 nM
Cc1nc2c(cc1F)c(-c1nc3c(c(C(N)=O)n1)C(C)(C(F)(F)F)C(=O)N3)nn2Cc1ccccc1F (racemic) [Example 12, rac-2-[5-fluoro-1-(2-fluorobenzyl)-6-methyl-1H-pyrazolo[3,4-b]pyridin-3-yl]-5-methyl-6-oxo-5-(trifluoromethyl)-6,7-dihydro-5H-pyrrolo[2,3-d]pyrimidine-4-carboxamide] | 0.065 µM | 130 nM
CC(CNC(=O)c1nc(-c2nn(Cc3ccccc3F)c3ncccc23)nc2c1C(C)(C)C(=O)N2)N(C)C (racemic) [Example 105, rac-N-[2-(dimethylamino)propyl]-2-[1-(2-fluorobenzyl)-1H-pyrazolo[3,4-b]pyridin-3-yl]-5,5-dimethyl-6-oxo-6,7-dihydro-5H-pyrrolo[2,3-d]pyrimidine-4-carboxamide] | 1 µM | 620 nM
Cc1nc2c(cc1F)c(-c1nc3c(c(C(N)=O)n1)C(C)(C(F)(F)F)C(=O)N3)nn2Cc1cccc(F)c1F (single isomer, unassigned; ent-2) [Example 10, ent-2-[1-(2,3-Difluorobenzyl)-5-fluoro-6-methyl-1H-pyrazolo[3,4-b]pyridin-3-yl]-5-methyl-6-oxo-5-(trifluoromethyl)-6,7-dihydro-5H-pyrrolo[2,3-d]pyrimidine-4-carboxamide (enantiomer A)] | 0.3 µM | 110 nM
CCC(=O)C(C)NC(=O)c1nc(-c2nn(Cc3ccccc3F)c3ncccc23)nc2c1C(C)(C)C(=O)N2 (racemic) [Example 66, rac-2-[1-(2-fluorobenzyl)-1H-pyrazolo[3,4-b]pyridin-3-yl]-5,5-dimethyl-6-oxo-N-(3-oxopentan-2-yl)-6,7-dihydro-5H-pyrrolo[2,3-d]pyrimidine-4-carboxamide] | 0.3 µM | 87 nM
CN(CCO)C(=O)c1nc(-c2nn(Cc3ccccc3F)c3ncccc23)nc2c1C(C)(C)C(=O)N2 [Example 120, 2-[1-(2-fluorobenzyl)-1H-pyrazolo[3,4-b]pyridin-3-yl]-N-(2-hydroxyethyl)-N,5,5-trimethyl-6-oxo-6,7-dihydro-5H-pyrrolo[2,3-d]pyrimidine-4-carboxamide] | 0.1 µM | 220 nM
CC(C)(N)CNC(=O)c1nc(-c2nn(Cc3ccccc3F)c3ncc(F)cc23)nc2c1C(C)(C)C(=O)N2 [Example 30] | 1 µM | 310 nM

The next compounds have a lower IC50 [2] than those just listed; values first:

MEC [1] | IC50 [2] | SMILES
0.1 µM | 15 nM | CCCNC(=O)c1nc(-c2nn(Cc3ccccc3F)c3ncccc23)nc2c1C(C)(C)C(=O)N2 [Example 81, 2-[1-(2-fluorobenzyl)-1H-pyrazolo[3,4-b]pyridin-3-yl]-5,5-dimethyl-6-oxo-N-propyl-6,7-dihydro-5H-pyrrolo[2,3-d]pyrimidine-4-carboxamide]
0.1 µM | 33 nM | CC1(C)C(=O)Nc2nc(-c3nn(Cc4ccccc4F)c4ncc(F)cc34)nc(C(=O)NCC3CC3)c21 [Example 49]
0.1 µM | 11 nM | CCC(C)NC(=O)c1nc(-c2nn(Cc3ccccc3F)c3ncccc23)nc2c1C(C)(C)C(=O)N2 (racemic) [Example 63, rac-N-(butan-2-yl)-2-[1-(2-fluorobenzyl)-1H-pyrazolo[3,4-b]pyridin-3-yl]-5,5-dimethyl-6-oxo-6,7-dihydro-5H-pyrrolo[2,3-d]pyrimidine-4-carboxamide]
1 µM | 77 nM | CC1(C)C(=O)Nc2nc(-c3nn(Cc4ncccc4F)c4ncc(F)cc34)nc(C(=O)NC(C3CC3)C3CC3)c21 [Example 34]
0.1 µM | 8.6 nM | CC1(C)C(=O)Nc2nc(-c3nn(Cc4ccccc4F)c4ncccc34)nc(C(=O)NC3(C4CC4)CC3)c21 [Example 82, N-[1,1′-bi(cyclopropyl)-1-yl]-2-[1-(2-fluorobenzyl)-1H-pyrazolo[3,4-b]pyridin-3-yl]-5,5-dimethyl-6-oxo-6,7-dihydro-5H-pyrrolo[2,3-d]pyrimidine-4-carboxamide]
1 µM | 21 nM | CC1(C)C(=O)Nc2nc(-c3nn(Cc4ccccc4F)c4ncccc34)nc(C(=O)NCC3(O)CC3)c21 [Example 138, 2-[1-(2-fluorobenzyl)-1H-pyrazolo[3,4-b]pyridin-3-yl]-N-[(1-hydroxycyclopropyl)methyl]-5,5-dimethyl-6-oxo-6,7-dihydro-5H-pyrrolo[2,3-d]pyrimidine-4-carboxamide]
0.03 µM | 62 nM | CC1(C)C(=O)Nc2nc(-c3nn(Cc4ccccc4F)c4ncccc34)nc(C(=O)NCCOCC(F)(F)F)c21 [Example 96, 2-[1-(2-fluorobenzyl)-1H-pyrazolo[3,4-b]pyridin-3-yl]-5,5-dimethyl-6-oxo-N-[2-(2,2,2-trifluoroethoxy)ethyl]-6,7-dihydro-5H-pyrrolo[2,3-d]pyrimidine-4-carboxamide]
0.1 µM | 26 nM | CC1(C)C(=O)Nc2nc(-c3nn(Cc4ccccc4F)c4ncccc34)nc(C(=O)NCCC(F)(F)F)c21 [Example 74, 2-[1-(2-fluorobenzyl)-1H-pyrazolo[3,4-b]pyridin-3-yl]-5,5-dimethyl-6-oxo-N-(3,3,3-trifluoropropyl)-6,7-dihydro-5H-pyrrolo[2,3-d]pyrimidine-4-carboxamide]
0.3 µM | 9.3 nM | CC1(C)C(=O)Nc2nc(-c3nn(Cc4ccccc4F)c4ncccc34)nc(C(=O)NC3CCOC3=O)c21 (racemic) [Example 78, rac-2-[1-(2-fluorobenzyl)-1H-pyrazolo[3,4-b]pyridin-3-yl]-5,5-dimethyl-6-oxo-N-(2-oxotetrahydrofuran-3-yl)-6,7-dihydro-5H-pyrrolo[2,3-d]pyrimidine-4-carboxamide]
1 µM | 6.8 nM | CC1(C)C(=O)Nc2nc(-c3nn(Cc4ccccc4F)c4ncccc34)nc(C(=O)NC3CCOC3)c21 (racemic) [Example 65, rac-2-[1-(2-fluorobenzyl)-1H-pyrazolo[3,4-b]pyridin-3-yl]-5,5-dimethyl-6-oxo-N-(tetrahydrofuran-3-yl)-6,7-dihydro-5H-pyrrolo[2,3-d]pyrimidine-4-carboxamide]
0.3 µM | 4.3 nM | CC1(C)C(=O)Nc2nc(-c3nn(Cc4ccccc4F)c4ncccc34)nc(C(=O)Nc3cn[nH]c3)c21 [Example 100, 2-[1-(2-fluorobenzyl)-1H-pyrazolo[3,4-b]pyridin-3-yl]-5,5-dimethyl-6-oxo-N-(1H-pyrazol-4-yl)-6,7-dihydro-5H-pyrrolo[2,3-d]pyrimidine-4-carboxamide]
0.1 µM | 44 nM | CNC(=O)c1nc(-c2nn(Cc3ccccc3F)c3ncccc23)nc2c1C(C)(C)C(=O)N2 [Example 86, 2-[1-(2-fluorobenzyl)-1H-pyrazolo[3,4-b]pyridin-3-yl]-N,5,5-trimethyl-6-oxo-6,7-dihydro-5H-pyrrolo[2,3-d]pyrimidine-4-carboxamide]
